In patent US20250129023A1, “[…]” (Reunion Neuroscience, Inc., priority 2020, published 2025):
Structures can show the parent of a compound that is named as a salt.

How the values were obtained:
[1] = Pharmacokinetics and subjective effects in human volunteers; assay type: in vivo; details: standardized questionnaires
Description: The compound from example 6 (N,N diisopropyltryptamine-4-glutarate) is administered to human volunteers by subcutaneous injection of a sterile solution (1 mg/ml) at a dosage of 0.1-0.6 mg/kg. Blood samples are taken at 5, 15, 30, 45, 60, 120, 240 and 480 min and 24 h. Samples are analyzed by LCMS for drug and prodrug. Subjective effects are measured using standardized questionnaires.
The compound from example 2 (4-hemisuccinate of 4-OH-DiPT) is administered to human volunteers by oral ingestion of a tablet containing 50 mg of the prodrug. Blood samples are taken at 5, 15, 30, 45, 60, 120, 240 and 480 min and 24 h. Samples are analyzed by LCMS for drug and prodrug. Subjective effects are measured using standardized questionnaires.

rats = test: Head Twitch Response (HTR) / Wet Dog Shakes by visual observation; assay type: in vivo; details: after injection of the compound from example 9, highest intensity at the Tmax of the PK profile
Description: In some cases, Head Twitch Response (HTR) or Wet Dog Shakes (WDS) were recorded by visual observation and counting of the relevant muscle twitches.

[2] = test system: human patient suffering depression; test: Use in treatment of a human patient suffering depression; assay type: in vivo; details: i.m. or s.c. injection (ca. 25 mg) or oral (ca. 50-200 mg)
Description: The compound of example 6 (N,N diisopropyltryptamine-4-glutarate) is administered by i.m. or s.c. injection (ca. 25 mg; 0.4-0.5 mg/kg) to a human patient suffering depression, or by oral administration (ca. 50-200 mg; 0.8-3.2 mg/kg) with tablets. In another example of use, the compound of example 6 (4-hemiglutarate of 4-OH-DiPT) is similarly administered. Prior to the dosing session, the patient is qualified for the experience by measurement of depression scores, screened for exclusions (e.g. history of psychoses, unfavorable heart condition, pregnancy) and finally, the patient is encouraged to formulate an intent for the dosing session. Dosing is performed in a quiet clinic setting with the patient resting comfortably in an inclined, but unrestrained, position to avoid falls. The patients' eyes are covered, and music is applied. The drug is administered. After 4 h, the patient reports no longer feeling the effects of the drug and is asked to sit up while under supervision. Feeling normal, the patient is allowed to stand (supervised) and feeling in control, is allowed to move around. One hour later, the patient is discharged. Later by 24 h, the patient returns to the clinic to meet with a psychotherapist to recount the session. The patient records a depression score via questionnaire and is again discharged. […]

Solubility in water = assay type: physicochemical; details: HCl salt solid
Description: The structure was confirmed by NMR. Purity was determined by HPLC (>97%). The solid was resuspended in […] HCl-dioxane to form the HCl salt which was filtered, washed with ether and dried. Yield (>95%, purity >95%; DSC endotherm 174C). The solid could be dissolved in water up to 50 mg/ml and lyophilized to form a white “cake”.

[3] = Prodrug hydrolysis in rat plasma at 37° C; assay type: in vitro ADME; details: 1.0 ug/mL
Description: (§1) Pooled mixed gender human plasma (2 ml), mouse plasma, rat plasma and dog plasma were equilibrated at 37° C. The compound of example 9 was added so as to achieve a concentration of 1.0 ug/mL. Aliquots (50 uL) of the mixture were withdrawn at timed intervals (0, 0.004, 0.5, 1, 2 and 4 hours) and quenched with 200 uL of methanol/acetonitrile (1:1). The samples were vortexed and stored at −80° C. until analysis. Assays were done in triplicate. Control samples were done in phosphate buffered saline (PBS, pH 7.4) and simulated gastric fluid (SGF, pH 2). Analysis of samples as performed by HPLC-MS to determine the amounts of prodrug and drug in each sample tested. Table 1 provides the mean concentrations of prodrug remaining at different time points of the experiment.

[4] = Control hydrolysis in phosphate buffered saline (PBS); assay type: physicochemical; details: PBS (pH 7)
Description: as §1

[5] = Prodrug hydrolysis in mouse plasma at 37° C; assay type: in vitro ADME; details: 1.0 ug/mL
Description: as §1

[6] = Prodrug hydrolysis in pooled mixed gender human plasma at 37° C; assay type: in vitro ADME; details: 1.0 ug/mL
Description: as §1

[7] = Prodrug hydrolysis in dog plasma at 37° C; assay type: in vitro ADME; details: 1.0 ug/mL
Description: as §1

[8] = Control hydrolysis in simulated gastric fluid (SGF, pH 2); assay type: physicochemical
Description: as §1

[9] = Pharmacokinetics in rats (i.v. and s.c. injection, LCMS of drug and prodrug); assay type: in vivo; details: rodent, 1.4-2 mg/kg
Description: The compound from example 9 was administered to rats by injection (intravenous and subcutaneous) with a sterile solution (2 mg/ml) at a rate of 1.4-2 mg/kg. Blood samples were taken at 15, 30, 45, 60, 120, 240 min and 360 min and analyzed by LCMS for drug and prodrug. PK profile for the prodrug and active species were obtained and relative bioavailability was determined for each of the routes of administration.
Pharmacokinetics of 1.34 mg/ml 4-HO-DiPT HCl administered by intravenous or subcutaneous injection were performed in parallel under identical conditions as above. […] Immediately obvious is the increased variability with the active species when administered s.c. and intravenous administrations.

Q: With CC(C)N(CCc1c[nH]c2cccc(OC(=O)CCC(=O)O)c12)C(C)C [Example 2, 4-hemisuccinate of 4-hydroxy-diisopropyltryptamine (4-OH-DiPT)] as the compound, how does the “Subjective effects (intensity of psychoactivity)” value ([1]; oral tablet 50 mg) read?
A: correlates with blood levels

Q: Which “Intensity of the HTR versus plasma concentration” value (rats) does the source give for CC(C)N(CCc1c[nH]c2cccc(O)c12)C(C)C [Example 4-HO-DIPT, 4-hydroxy-N,N-diisopropyltryptamine] here?
A: proportional to the plasma concentration

Q: What does the source list for CC(C)N(CCc1c[nH]c2cccc(OC(=O)CCCC(=O)O)c12)C(C)C [Example 6, N,N diisopropyltryptamine-4-glutarate]?
A: Time after which the patient reports no longer feeling the effects of the drug [2]: 4 h; Subjective effects (intensity of psychoactivity) ([1]; subcutaneous injection, 0.1-0.6 mg/kg): correlates with blood levels; Solubility in water (Solubility in water): up to 50 mg/ml

Q: For CC(C)N(CCc1c[nH]c2cccc(OC(=O)CCCC(=O)O)c12)C(C)C [Example 9, HCl salt of N,N diisopropyltryptamine-4-glutarate], which “Percentage of remaining prodrug” value ([3]; time 0 h) is on record?
A: 100%

Q: What about the “Percentage of remaining prodrug” value ([3]; time 0.004 h) of the same compound?
A: 0%

Q: What about the “Percentage of remaining prodrug” value ([3]; time 0.5 h) of the same compound?
A: 0%

Q: What about the “Percentage of remaining prodrug” value ([3]; time 1 h) of the same compound?
A: 0%

Q: And the “Percentage of remaining prodrug” value ([3]; time 2 h)?
A: 0%

Q: And the “Percentage of remaining prodrug” value ([3]; time 4 h)?
A: 0%

Q: And the “Percentage of remaining prodrug” value ([4]; time 0 h)?
A: 100%

Q: What about the “Percentage of remaining prodrug” value ([4]; time 4 h) of the same compound?
A: 93%

Q: What about the “Percentage of remaining prodrug” value ([5]; time 0 h) of the same compound?
A: 100%

Q: What about the “Percentage of remaining prodrug” value ([5]; time 0.004 h) of the same compound?
A: 0%

Q: What about the “Percentage of remaining prodrug” value ([5]; time 0.5 h) of the same compound?
A: 0%

Q: And the “Percentage of remaining prodrug” value ([5]; time 1 h)?
A: 0%

Q: What about the “Percentage of remaining prodrug” value ([5]; time 2 h) of the same compound?
A: 0%

Q: What about the “Percentage of remaining prodrug” value ([5]; time 4 h) of the same compound?
A: 0%

Q: And the “Percentage of remaining prodrug” value ([6]; time 0 h)?
A: 100%

Q: What about the “Percentage of remaining prodrug” value ([6]; time 0.004 h) of the same compound?
A: 100%

Q: What about the “Percentage of remaining prodrug” value ([6]; time 0.5 h) of the same compound?
A: 3.0%

Q: What about the “Percentage of remaining prodrug” value ([6]; time 1 h) of the same compound?
A: 0.23%

Q: What about the “Percentage of remaining prodrug” value ([6]; time 2 h) of the same compound?
A: 0%

Q: And the “Percentage of remaining prodrug” value ([6]; time 4 h)?
A: 0%

Q: And the “Percentage of remaining prodrug” value ([7]; time 0 h)?
A: 100%

Q: And the “Percentage of remaining prodrug” value ([7]; time 0.004 h)?
A: 100%

Q: And the “Percentage of remaining prodrug” value ([7]; time 0.5 h)?
A: 87%

Q: And the “Percentage of remaining prodrug” value ([7]; time 1 h)?
A: 79%

Q: And the “Percentage of remaining prodrug” value ([7]; time 2 h)?
A: 64%

Q: And the “Percentage of remaining prodrug” value ([7]; time 4 h)?
A: 39%

Q: And the “Percentage of remaining prodrug” value ([8]; time 0 h)?
A: 100%

Q: What about the “Percentage of remaining prodrug” value ([8]; time 0.004 h) of the same compound?
A: 100%

Q: What about the “Percentage of remaining prodrug” value ([8]; time 0.5 h) of the same compound?
A: 100%

Q: What about the “Percentage of remaining prodrug” value ([8]; time 1 h) of the same compound?
A: 100%

Q: What about the “Percentage of remaining prodrug” value ([8]; time 4 h) of the same compound?
A: 101%

Q: And the “Prodrug in blood samples after injection” value [9]?
A: prodrug was not observed
